The target of the assay is Mycobacterium tuberculosis shikimate kinase (Mycobacterium tuberculosis, UniProt P9WPY3). Description: Shikimate kinase steady-state kinetics, ATP vs C8D-ATP. The format is biochemical. The source says:
Hexokinase from Saccharomyces cerevisiae Type F-300 (Sigma, H4502) and Acetate kinase from E. coli (Sigma, A7437) were purchased. The human adenylate kinase (AK1) gene in vector pLIG-SC1 was obtained from the Structural Genomics Consortium (code AK1A). The His-tagged AK1 was produced in Escherichia coli Origami (DE3) and purified using the Bio-Rad Profinia Purification System. […] The Mycobacterium tuberculosis shikimate kinase gene in pET15b (Novagen) was obtained from the group of Chris Abell, Cambridge University, UK. The his-tagged MtSK was produced in E. coli BL21 (DE3) and purified using the Bio-Rad Profinia Purification System. The pure protein was dialysed against 50 mM Tris (pH 7.5) and 1,000 mM NaCl. Adenylylated (GS12) and deadenylylated (GS0) glutamine synthetase were prepared as outlined below.
The final volumes were 100 μl, and the reactions were incubated at 37° C. for 20 minutes, before being terminated by the addition of 5 μl 200 mM EDTA.
The results are reflected in FIGS. 19 to 25. […] The best-fit to the data was obtained for the specified kinetic model using the non-linear regression algorithms as outlined using the GraphPad Prism® 5 software. […] These response curves were then used to define the KIE by the conventional estimation of KIE from KIE=vH/vD. The KIED was also determined using the following function: […]

[1] abbreviates: tested model: Allosteric sigmoidal.

Sequence of Mycobacterium tuberculosis shikimate kinase (P9WPY3 whole entry): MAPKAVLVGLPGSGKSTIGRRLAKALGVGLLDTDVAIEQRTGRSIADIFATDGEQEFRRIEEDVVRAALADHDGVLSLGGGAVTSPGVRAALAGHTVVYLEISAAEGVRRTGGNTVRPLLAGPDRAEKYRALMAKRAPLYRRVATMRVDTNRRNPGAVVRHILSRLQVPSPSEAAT

`Nc1ncnc2c1ncn2[C@@H]1O[C@H](COP(=O)(O)OP(=O)(O)OP(=O)(O)O)[C@@H](O)[C@H]1O` [ATP, adenosine triphosphate, reference compound]: the “fit to kinetic model” value by setting is: under setting [1], “Allosteric sigmoidal”; (tested model: Michaelis-Menton) “Fit ambiguous”.
For `Nc1ncnc2c1ncn2[C@@H]1O[C@H](COP(=O)(O)OP(=O)(O)OP(=O)(O)O)[C@@H](O)[C@H]1O` [C8D-ATP], the KIEvmax (KIE at maximum enzyme activity) is on record as 1. In addition, the “fit to kinetic model” value under setting [1] was “Allosteric sigmoidal” and the “fit to kinetic model” value (tested model: Michaelis-Menton) is on record as “Fit ambiguous”.

The values above are taken from patent publication US20120270251A1, “INHIBITION OF THE ACTIVITY OF KINASE AND SYNTHETASE ENZYMES” (CSIR, priority 2009, published 2012).
